From patent EP0745595A1, “3-(3-Aryloxyphenyl)-1-(substituted methyl)-s-triazine-2,4,6-oxo or thiotrione herbicidal agents” (American Cyanamid Company, priority 1995, dated 1996)

Legend:
Format in all cases: in vivo
[1] = tested on: ABUTILON THEOPHRASTI, MEDIC.; experiment: Postemergence herbicidal evaluation, ABUTH (Velvetleaf); conditions: rated four to five weeks after treatment, averaged
How it was run: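 Velvetleaf (Abutilon theophrasti) seedlings were raised in jiffy flats for about two weeks and then sprayed postemergence. The test compound was dispersed in a 50/50 acetone/water mixture containing 0.5% TWEEN®20 and applied through a nozzle operating at 40 psi. Plants were kept on greenhouse benches and rated 0-9 four to five weeks after treatment.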

CHENOPODIUM ALBUM, L. [2] = experiment: Postemergence herbicidal evaluation, CHEAL (Lambsquarters, Common); conditions: rated four to five weeks after treatment, averaged
How it was run: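 Seedlings of common lambsquarters (Chenopodium album) were raised in jiffy flats for roughly two weeks, then sprayed postemergence through a nozzle at 40 psi with test compound dispersed in 50/50 acetone/water containing 0.5% TWEEN®20 surfactant. Plants were kept on greenhouse benches under standard care and rated visually on a 0-9 scale versus controls.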

IPOMOEA SPP. [3] = experiment: Postemergence herbicidal evaluation, IPOSS (Morningglory spp.); conditions: rated four to five weeks after treatment, averaged
How it was run: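 Seedlings of morningglory (Ipomoea spp.) were raised in jiffy flats for roughly two weeks. They were then sprayed postemergence through a nozzle at 40 psi with test compound dispersed in 50/50 acetone/water containing 0.5% TWEEN®20 surfactant. Plants were kept on greenhouse benches under standard care and visually rated 0-9 against controls four to five weeks after treatment.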

[4] = tested on: ABUTILON THEOPHRASTI, MEDIC.; experiment: Preemergence herbicidal evaluation, ABUTH (Velvetleaf); conditions: four to five weeks after treatment
How it was run: (§1)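 Seeds sown in potting soil cups, then sprayed preemergence with aqueous acetone compound solution at about 0.125 to 0.50 kg per hectare. Greenhouse-grown, rated 4–5 weeks after treatment on a 0–9 visual scale against control.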

CHENOPODIUM ALBUM, L. [5] = experiment: Preemergence herbicidal evaluation, CHEAL (Lambsquarters, Common); conditions: four to five weeks after treatment
How it was run: as §1

IPOMOEA SPP. [6] = experiment: Preemergence herbicidal evaluation, IPOSS (Morningglory spp.); conditions: four to five weeks after treatment
How it was run: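 Seeds of morningglory (Ipomoea spp.) were mixed with potting soil and sown on roughly one inch of soil in pint cups for a preemergence herbicide test. The cups were put on greenhouse benches, watered, and maintained by standard greenhouse practice. Four to five weeks after treatment each cup was scored visually on a 0-9 scale against a control.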

GALIUM APARINE = experiment: Preemergence herbicidal evaluation, GALAP (Galium); conditions: four to five weeks after treatment
How it was run: as §1

[7] = tested on: CYPERUS SEROTINUS, ROTTB.; experiment: Preemergence weed control under flooded paddy conditions, CYPSE (Flatsedge); conditions: preemergence weeds, rated three to four weeks after treatment
How it was run: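 Flooded paddy preemergence test: seeds/propagating organs in top 0.5 cm silt loam, water held 1.5-3 cm above soil. Dosing by pipette into flood water, aqueous/acetone 50/50 v/v, ~0.5, 0.25, 0.125, 0.063 kg/ha a.i. Greenhouse; read at 3-4 wk, 0-9 visual scale.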

[8] = tested on: ORYZA SATIVA, L. TEBONNET; experiment: Rice tolerance to post-transplant applications under flooded paddy conditions, ORYSAT (Rice, Tebonnet); conditions: post-transplant rice, rated three to four weeks after treatment;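 also: applied to flooded soil surface three days after transplanting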
How it was run: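 Post-transplant paddy test: compound applied 3 d after transplanting to flooded soil (1.5-3 cm water), ~0.063-0.5 kg/ha a.i., 50/50 aq/acetone. Silt loam, 2 × 10-d seedlings/pot. Greenhouse 3-4 wk, visual 0-9 score vs control.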

ECHINOCHLOA CRUS-GALLI = experiment: Preemergence evaluation in the presence of transplanted rice under flooded paddy conditions (Example 43), ECHCG (Barnyard Grass); set-up: key: visual rating on a 0-9 scale, compared with control; conditions: applied three days after sowing, 25 to 30 days after treatment
Protocol: (§2) Results of herbicide evaluation are expressed on a rating scale (0-9). The scale is based upon a visual observation of plant stand, vigor, malformation, size, chlorosis and overall plant appearance as compared with a control.
(§3) In this example, Deluvian paddy soil (Toyokawa paddy soil) is placed in plastic pots, 100cm^2 x 9 cm in depth. Water is added to the level of the soil surface in the pot and the mixture is paddled 3 cm in depth.
(§4) Pots are then variously sown with monocotyledenous weed seeds and tubers at 0-2 cm in soil depth, as well as transplanted rice plants at the 2.5 leaf stage. The rice plants are transplanted at about 3 cm soil depth. Water is then added to all of the pots to 3 cm deep and kept at a depth of 3 cm for the duration of the test. Test compounds are applied in the manner described in Example 42 three days after transplanting the rice plants and sowing the weed seeds and tubers. The pots are then placed on greenhouse benches and cared for in the conventional manner. Tests are examined at 25 to 30 days after treatment and rated according to the rating system provided in Example 40. The compounds evaluated are reported by compound number given in Example 40.

SAGITTARIA PYGMAEA = experiment: Preemergence evaluation in the presence of transplanted rice under flooded paddy conditions (Example 43), SAGPY (Arrowhead (Pygmaea)); set-up: key: visual rating on a 0-9 scale, compared with control; conditions: applied three days after sowing, 25 to 30 days after treatment
Protocol: as §2, §3, §4

[…] = Preemergence evaluation in the presence of transplanted rice under flooded paddy conditions (Example 43), MOOVA (Monochoria); conditions: applied three days after sowing, 25 to 30 days after treatment
Protocol: as §2, §3, §4

CYPERUS DIFFORMIS = experiment: Preemergence evaluation in the presence of transplanted rice under flooded paddy conditions (Example 43), CYPDI (Flatsedge, smallflower); set-up: key: visual rating on a 0-9 scale, compared with control; conditions: applied three days after sowing, 25 to 30 days after treatment
Protocol: as §2, §3, §4

SCIRPUS JUNCOIDES = experiment: Preemergence evaluation in the presence of transplanted rice under flooded paddy conditions (Example 43), SCPJU (Bulrush, Japanese); set-up: key: visual rating on a 0-9 scale, compared with control; conditions: applied three days after sowing, 25 to 30 days after treatment
Protocol: as §2, §3, §4

[9] = tested on: ORYZA SATIVA, L. CV. KOSHIHIKARI; experiment: Post-transplant rice evaluation under flooded paddy conditions (Example 43), ORYSAK (Rice, Koshihikari); set-up: key: visual rating on a 0-9 scale, compared with control; conditions: applied three days after transplanting rice, 25 to 30 days after treatment
Protocol: as §2, §3, §4

CCOC(=O)Cn1c(=O)[nH]c(=O)n(-c2cc(Oc3ccc(C(F)(F)F)cc3Cl)ccc2[N+](=O)[O-])c1=O [Compound 5, Ethyl 3-{5-[(2-chloro-α,α,α-trifluoro-p-tolyl)oxy]-2-nitrophenyl}tetrahydro-2,4,6-trioxo-s-triazine-1(2H)-acetate]
ABUTH, herbicide rating (0-9) ([1]; Rate 0.125 kg/ha): 9.0
ABUTH, herbicide rating (0-9) ([1]; Rate 0.250 kg/ha): 9.0
ABUTH, herbicide rating (0-9) ([1]; Rate 0.500 kg/ha): 9.0
CHEAL, herbicide rating (0-9) (CHENOPODIUM ALBUM, L. [2]; Rate 0.125 kg/ha): 8.0
CHEAL, herbicide rating (0-9) (CHENOPODIUM ALBUM, L. [2]; Rate 0.250 kg/ha): 8.0
CHEAL, herbicide rating (0-9) (CHENOPODIUM ALBUM, L. [2]; Rate 0.500 kg/ha): 8.0
IPOSS, herbicide rating (0-9) (IPOMOEA SPP. [3]; Rate 0.125 kg/ha): 9.0
IPOSS, herbicide rating (0-9) (IPOMOEA SPP. [3]; Rate 0.250 kg/ha): 9.0
IPOSS, herbicide rating (0-9) (IPOMOEA SPP. [3]; Rate 0.500 kg/ha): 9.0
ABUTH rating ([4]; Rate 0.125 kg/ha): 9.0
ABUTH rating ([4]; Rate 0.250 kg/ha): 9.0
ABUTH rating ([4]; Rate 0.500 kg/ha): 9.0
CHEAL rating (CHENOPODIUM ALBUM, L. [5]; Rate 0.125 kg/ha): 9.0
CHEAL rating (CHENOPODIUM ALBUM, L. [5]; Rate 0.250 kg/ha): 9.0
CHEAL rating (CHENOPODIUM ALBUM, L. [5]; Rate 0.500 kg/ha): 9.0
IPOSS rating (IPOMOEA SPP. [6]; Rate 0.125 kg/ha): 9.0
IPOSS rating (IPOMOEA SPP. [6]; Rate 0.250 kg/ha): 9.0
IPOSS rating (IPOMOEA SPP. [6]; Rate 0.500 kg/ha): 9.0
GALAP rating (GALIUM APARINE; Rate 0.125 kg/ha): 9.0
GALAP rating (GALIUM APARINE; Rate 0.250 kg/ha): 9.0
GALAP rating (GALIUM APARINE; Rate 0.500 kg/ha): 9.0
CYPSE herbicidal rating ([7]; Rate 0.125 kg/ha): 9.0
CYPSE herbicidal rating ([7]; Rate 0.250 kg/ha): 9.0
CYPSE herbicidal rating ([7]; Rate 0.500 kg/ha): 9.0
ORYSAT herbicidal rating (rice tolerance) ([8]; Rate 0.063 kg/ha): 3.0
ORYSAT herbicidal rating (rice tolerance) ([8]; Rate 0.125 kg/ha): 4.3
ORYSAT herbicidal rating (rice tolerance) ([8]; Rate 0.250 kg/ha): 5.0
ORYSAT herbicidal rating (rice tolerance) ([8]; Rate 0.500 kg/ha): 5.3
Herbicidal effect rating, ECHCG (ECHINOCHLOA CRUS-GALLI; 0.032 kg/ha): 8.0
Herbicidal effect rating, ECHCG (ECHINOCHLOA CRUS-GALLI; 0.063 kg/ha): 8.0
Herbicidal effect rating, ECHCG (ECHINOCHLOA CRUS-GALLI; 0.125 kg/ha): 8.0
Herbicidal effect rating, ECHCG (ECHINOCHLOA CRUS-GALLI; 0.250 kg/ha): 9.0
Herbicidal effect rating, SAGPY (SAGITTARIA PYGMAEA; 0.032 kg/ha): 1.0
Herbicidal effect rating, SAGPY (SAGITTARIA PYGMAEA; 0.063 kg/ha): 3.0
Herbicidal effect rating, SAGPY (SAGITTARIA PYGMAEA; 0.125 kg/ha): 9.0
Herbicidal effect rating, SAGPY (SAGITTARIA PYGMAEA; 0.250 kg/ha): 8.0
Herbicidal effect rating, MOOVA ([…]; 0.032 kg/ha): 9.0
Herbicidal effect rating, MOOVA ([…]; 0.063 kg/ha): 9.0
Herbicidal effect rating, MOOVA ([…]; 0.125 kg/ha): 9.0
Herbicidal effect rating, MOOVA ([…]; 0.250 kg/ha): 9.0
Herbicidal effect rating, CYPDI (CYPERUS DIFFORMIS; 0.032 kg/ha): 8.0
Herbicidal effect rating, CYPDI (CYPERUS DIFFORMIS; 0.063 kg/ha): 9.0
Herbicidal effect rating, CYPDI (CYPERUS DIFFORMIS; 0.125 kg/ha): 9.0
Herbicidal effect rating, CYPDI (CYPERUS DIFFORMIS; 0.250 kg/ha): 9.0
Herbicidal effect rating, SCPJU (SCIRPUS JUNCOIDES; 0.032 kg/ha): 4.0
Herbicidal effect rating, SCPJU (SCIRPUS JUNCOIDES; 0.063 kg/ha): 6.0
Herbicidal effect rating, SCPJU (SCIRPUS JUNCOIDES; 0.125 kg/ha): 9.0
Herbicidal effect rating, SCPJU (SCIRPUS JUNCOIDES; 0.250 kg/ha): 9.0
Herbicidal effect rating, ORYSAK ([9]; 0.032 kg/ha): 0.0
Herbicidal effect rating, ORYSAK ([9]; 0.063 kg/ha): 0.0
Herbicidal effect rating, ORYSAK ([9]; 0.125 kg/ha): 2.0
Herbicidal effect rating, ORYSAK ([9]; 0.250 kg/ha): 2.0
